Laboratory results from patent US7101878B1 (Agouron Pharmaceuticals, Inc., priority 1998, dated 2006).

These compounds were tested against T1, mouse GnRH receptor (Mus musculus, UniProt Q01776) (assay: Radioligand binding, 125I-GnRH-A, 293 cells expressing mouse GnRH receptors). Conditions: 10 uM; read-out: % Inhib. @ 10 uM mGnRH.
T1 construct: expressed in transfected cells; host or cells: 293 cells
T1 sequence (Q01776 1-327): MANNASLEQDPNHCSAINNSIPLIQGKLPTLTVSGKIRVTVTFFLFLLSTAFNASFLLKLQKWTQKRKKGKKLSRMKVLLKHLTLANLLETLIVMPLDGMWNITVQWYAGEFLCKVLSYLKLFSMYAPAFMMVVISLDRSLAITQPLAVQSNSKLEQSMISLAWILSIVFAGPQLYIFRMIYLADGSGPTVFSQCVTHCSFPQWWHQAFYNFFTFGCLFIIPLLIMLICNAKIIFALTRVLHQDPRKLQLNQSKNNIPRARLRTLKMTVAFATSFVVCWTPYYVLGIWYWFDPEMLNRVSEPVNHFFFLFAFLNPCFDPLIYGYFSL
Method: All compounds were diluted in 1% DMSO (final assay concentration) in binding assay buffer. […] Reactions were terminated by rapid filtration onto 96-well Packard GF/C filters soaked in 0.1% polyethyleneimine. Filters were washed three times with PBS buffer, dried and counted on a Packard Topcount by liquid scintillation counting.
Assay conditions were identical for assessing compound activities at other species. […] IC50 values for control peptides and test compounds were calculated utilizing GraphPad Prism™ software.
The reaction mixture was vortexed and incubated for 1 min at room temperature. After one min, the mixture was vortexed and allowed to incubate for an additional minute. 2 ml of 0.5 M acetic acid/1% BSA was added to the reaction tube and the mixture was added to a C18 Sep-Pak cartridge. The cartridge was washed with subsequent washes of 5 ml H2O and 5 ml 0.5M acetic acid and then eluted with 5×1 ml of 60% CH3CN/40% 0.5M acetic acid. The eluate was diluted with 3× volume of HPLC buffer A (0.1% TFA in H2O) and loaded onto a C18 column. […] The radioactive fractions (750 ed/fraction) are collected into clean polypropylene tubes containing 100 μl of 10% BSA. Fractions were assessed for biological activity by radioligand binding.

inhibition at 10 µM | Compound
104% | Cc1cc2c(cc1Cc1ccc(C(=O)N3CCC(CCCC4CCN(CCO)CC4)CC3)o1)C(C)(C)CCC2(C)C [drawing 1427]
63% | Cc1cc2c(cc1Cc1ccc(C(=O)N3CCC3)o1)C(C)(C)CCC2(C)C
86% | Cc1cc2c(cc1Cc1ccc(C(=O)N3CCC[C@@H]3C(=O)OCc3ccccc3)o1)C(C)(C)CCC2(C)C
93% | Cc1cc2c(cc1Cc1ccc(C(=O)NCCCOC(C)C)o1)C(C)(C)CCC2(C)C [drawing 1487]
90% | Cc1cc2c(cc1Cc1ccc(C(=O)NCC(C)O)o1)C(C)(C)CCC2(C)C (stereo not shown) [drawing 1443]
43% | Cc1cc2c(cc1Cc1ccc(C(=O)N3CCCCC3C(=O)NC(c3ccccc3)c3ccccc3)o1)C(C)(C)CCC2(C)C (stereo not shown) [drawing 1436]
67% | COc1cccc(N2CCN(C(=O)c3ccc(Cc4cc5c(cc4C)C(C)(C)CCC5(C)C)o3)CC2)c1 [drawing 1497]
95% | Cc1cc2c(cc1Cc1ccc(C(=O)N(Cc3cccnc3)Cc3ccccc3F)o1)C(C)(C)CCC2(C)C [drawing 1287]
93% | C=C(C)CNC(=O)c1ccc(Cc2cc3c(cc2C)C(C)(C)CCC3(C)C)o1 [drawing 1573]
49% | CCN(C(=O)c1ccc(Cc2cc3c(cc2C)C(C)(C)CCC3(C)C)o1)C1C2CCC3CC32C1c1ccccc1 (stereo not shown)
90% | COC(CN(C)C(=O)c1ccc(Cc2cc3c(cc2C)C(C)(C)CCC3(C)C)o1)OC [drawing 1549]
80% | Cc1cc2c(cc1Cc1ccc(C(=O)N3CCC(n4c(=O)[nH]c5ccccc54)CC3)o1)C(C)(C)CCC2(C)C [drawing 1246]
61% | Cc1cc2c(cc1Cc1ccc(C(=O)N(CCc3ccccc3)Cc3ccoc3)o1)C(C)(C)CCC2(C)C [drawing 1557]
98% | Cc1cc2c(cc1Cc1ccc(C(=O)N(Cc3ccccc3)Cc3ccccn3)o1)C(C)(C)CCC2(C)C
65% | CCOC(=O)N1CCN(C(=O)c2ccc(Cc3cc4c(cc3C)C(C)(C)CCC4(C)C)o2)CC1 [drawing 1530]
97% | Cc1cc2c(cc1Cc1ccc(C(=O)N3CCN(CCc4ccccc4)CC3)o1)C(C)(C)CCC2(C)C
63% | Cc1cc2c(cc1Cc1ccc(C(=O)N3CCN(CC(=O)NC(C)C)CC3)o1)C(C)(C)CCC2(C)C

inhibition at 10 µM | Compound
98% | Cc1cc2c(cc1Cc1ccc(C(=O)NC(CO)CC(C)C)o1)C(C)(C)CCC2(C)C (stereo not shown) [drawing 1320]
73% | Cc1ccc(N2CCN(C(=O)c3ccc(Cc4cc5c(cc4C)C(C)(C)CCC5(C)C)o3)CC2C)cc1 (stereo not shown) [drawing 1276]
13% | Cc1cc2c(cc1Cc1ccc(C(=O)NC(CO)(CO)CO)o1)C(C)(C)CCC2(C)C
69% | Cc1cc2c(cc1Cc1ccc(C(=O)N(Cc3ccco3)C3CC(=O)N(C)C3=O)o1)C(C)(C)CCC2(C)C (stereo not shown) [drawing 1504]
57% | Cc1cc2c(cc1Cc1ccc(C(=O)N(Cc3cccc4ccccc34)C3CCN(Cc4ccccc4)C3)o1)C(C)(C)CCC2(C)C (stereo not shown) [drawing 1563]
98% | CCN(CC)CCN(CC)C(=O)c1ccc(Cc2cc3c(cc2C)C(C)(C)CCC3(C)C)o1
89% | Cc1cc2c(cc1Cc1ccc(C(=O)N3CCN(C(=O)c4ccco4)CC3)o1)C(C)(C)CCC2(C)C [drawing 1264]
58% | Cc1cc2c(cc1Cc1ccc(C(=O)N3CCN(c4cccc(C)c4C)CC3)o1)C(C)(C)CCC2(C)C [drawing 1468]
96% | Cc1cc2c(cc1Cc1ccc(C(=O)N3CCN(CCCN(C)C)CC3)o1)C(C)(C)CCC2(C)C
91% | Cc1cc2c(cc1Cc1ccc(C(=O)N(CCC#N)Cc3cccnc3)o1)C(C)(C)CCC2(C)C [drawing 1473]
100% | CCN(CC)CCCNC(=O)c1ccc(Cc2cc3c(cc2C)C(C)(C)CCC3(C)C)o1 [drawing 1244]
17% | Cc1cc2c(cc1Cc1ccc(C(=O)N(CCCc3ccccc3)Cc3ccc(Oc4ccccc4)cc3)o1)C(C)(C)CCC2(C)C
96% | Cc1cc2c(cc1Cc1ccc(C(=O)NCCN3CCN(c4nccc(NCC5CCCO5)n4)CC3)o1)C(C)(C)CCC2(C)C (stereo not shown)
101% | Cc1cc2c(cc1Cc1ccc(C(=O)NC3CCN(Cc4ccccc4)C3)o1)C(C)(C)CCC2(C)C (stereo not shown) [drawing 1243]
40% | Cc1cc2c(cc1Cc1ccc(C(=O)N3CCC(C#N)(c4ccccc4)CC3)o1)C(C)(C)CCC2(C)C
75% | Cc1ccc(N2CCN(C(=O)c3ccc(Cc4cc5c(cc4C)C(C)(C)CCC5(C)C)o3)CC2)cc1C

Same assay, conditions: 1 h, substrate remaining; 10 uM compound; closer to zero = closer to 100% inhibition; read-out: S%R 10 uM mGnRHR

remaining activity at 10 µM | Compound
8% | Cc1cc2c(cc1Cc1ccc(C(=O)NC(C)CN(C)C)o1)C(C)(C)CCC2(C)C (stereo not shown) [Compound 625]
22% | CCN(Cc1ccc(C)cc1)C(=O)c1ccc(Cc2cc3c(cc2C)C(C)(C)CCC3(C)C)o1 [Compound 644]
-1% | COc1ccc(CCNC(=O)c2ccc(Cc3cc4c(cc3C)C(C)(C)CCC4(C)C)o2)cc1OC [Compound 489]
9% | Cc1cc2c(cc1Cc1ccc(C(=O)NCC3CCN(C(N)N)CC3)o1)C(C)(C)CCC2(C)C [Compound 522]
10% | COc1ccccc1CN(C(=O)c1ccc(Cc2cc3c(cc2C)C(C)(C)CCC3(C)C)o1)C1CCN(Cc2ccccc2)C1 (stereo not shown) [Compound 674]
35% | Cc1cc2c(cc1Cc1ccc(C(=O)NCCc3ccc(Cl)cc3Cl)o1)C(C)(C)CCC2(C)C [Compound 524]
58% | Cc1cc2c(cc1Cc1ccc(C(=O)N3CCC(O)(c4ccc(Cl)cc4)CC3)o1)C(C)(C)CCC2(C)C [Compound 569]
24% | CCC(CC)NC(=O)c1ccc(Cc2cc3c(cc2C)C(C)(C)CCC3(C)C)o1 [Compound 666]
-3% | Cc1cc2c(cc1Cc1ccc(C(=O)NCC3Nc4ccccc4N3)o1)C(C)(C)CCC2(C)C [Compound 529]
32% | Cc1cc2c(cc1Cc1ccc(C(=O)NCCNCCN3CCOCC3)o1)C(C)(C)CCC2(C)C [Compound 465]
27% | Cc1cccc(N2CCN(C(=O)c3ccc(Cc4cc5c(cc4C)C(C)(C)CCC5(C)C)o3)CC2C)c1 (stereo not shown) [Compound 635]
25% | COc1cccc(CN(Cc2cccc(Oc3cccc(C(F)(F)F)c3)c2)C(=O)c2ccc(Cc3cc4c(cc3C)C(C)(C)CCC4(C)C)o2)c1OC [Compound 690]
55% | Cc1cc2c(cc1Cc1ccc(C(=O)N(Cc3ccccc3)[C@@H](C)c3ccccc3)o1)C(C)(C)CCC2(C)C [Compound 637]
8% | Cc1cc2c(cc1Cc1ccc(C(=O)N(C)CCCN(C)C)o1)C(C)(C)CCC2(C)C [Compound 608]
30% | CC(=O)N1CCN(C(=O)c2ccc(Cc3cc4c(cc3C)C(C)(C)CCC4(C)C)o2)CC1 [Compound 577]
23% | Cc1cc2c(cc1Cc1ccc(C(=O)N3CCC(O)CC3)o1)C(C)(C)CCC2(C)C [Compound 641]
4% | Cc1cc2c(cc1Cc1ccc(C(=O)NCCCO)o1)C(C)(C)CCC2(C)C [Compound 531]
34% | Cc1cc2c(cc1Cc1ccc(C(=O)Nc3nc(N(C)C)nc4nc[nH]c34)o1)C(C)(C)CCC2(C)C [Compound 517]
16% | Cc1cc2c(cc1Cc1ccc(C(=O)NCCc3c[nH]c4ccc(Cl)cc34)o1)C(C)(C)CCC2(C)C [Compound 509]
4% | Cc1cc2c(cc1Cc1ccc(C(=O)N3CCC(N4CCCC4)CC3)o1)C(C)(C)CCC2(C)C [Compound 588]
-6% | COC(=O)CCCCCNC(=O)c1ccc(Cc2cc3c(cc2C)C(C)(C)CCC3(C)C)o1 [Compound 493]
12% | Cc1cc2c(cc1Cc1ccc(C(=O)N(Cc3cccnc3)Cc3ccco3)o1)C(C)(C)CCC2(C)C [Compound 665]
0% | Cc1cc2c(cc1Cc1ccc(C(=O)N(CCN3CCCC3)Cc3ccccc3)o1)C(C)(C)CCC2(C)C [Compound 540]
1% | CCC(O)CNC(=O)c1ccc(Cc2cc3c(cc2C)C(C)(C)CCC3(C)C)o1 (stereo not shown) [Compound 679]
59% | Cc1cc2c(cc1Cc1ccc(C(=O)NCc3cccc(NC(=O)NC(Cc4ccccc4)c4ccccc4)c3)o1)C(C)(C)CCC2(C)C (stereo not shown) [Compound 682]
37% | Cc1cc2c(cc1Cc1ccc(C(=O)N3CCC(C(=O)c4ccc(F)cc4)CC3)o1)C(C)(C)CCC2(C)C [Compound 573]
-4% | Cc1cc2c(cc1Cc1ccc(C(=O)NCC3CCN(c4ccnc(Cl)n4)CC3)o1)C(C)(C)CCC2(C)C [Compound 530]

Same assay, conditions: read-out: % Inhib. @ 10 uM mGnRH

Compound | inhibition at 10 µM
Cc1cc2c(cc1Cc1ccc(C(=O)N[C@H]3CN4CCC3CC4)o1)C(C)(C)CCC2(C)C | 12%
